Results on one compound are retold here after ChEMBL document CHEMBL4808169, “Discovery of Potent and Fast-Acting Antimalarial Bis-1,2,4-triazines” (J Med Chem, 2021).

Active and inactive are the calls of the source. No cut-off for these calls is given here.

In one data set the test system is Plasmodium falciparum. Put plainly: Antiplasmodial activity against Plasmodium falciparum 3D70087/N9 infected in NOD-SCID 1L2Rgamma mouse assessed as reduction in parasitemia at 50 mg/kg, po administered for 4 days starting from day 3 post infection by Peter's 4-day test. The class given is functional, organism-based.
The nature of data set [1]: Cmax in Swiss mouse plasma at 2.8 mg/kg, po measured up to 24 hrs by LC-MS analysis. Format: ADME, organism-based. Also noted: route oral, dose 2.8 mg/kg, time <=24.
The nature of data set [2]: Drug metabolism in Sprague-Dawley rat feces assessed as oxygenated metabolite M+16(1) formation at 3 mg/kg, iv by high-resolution mass spectrometry. The class given is ADME, organism-based. The following applies: in vivo.
The nature of data set [3]: Drug metabolism in Sprague-Dawley rat urine assessed as oxygenated metabolite M+16(2) formation at 10 mg/kg, po by high-resolution mass spectrometry. Format: ADME, organism-based. The following applies: in vivo.
Data set [4] in a line: Drug metabolism in mouse liver microsomes assessed as N-methyl-2-(3'-propoxy-5,5'-bi(1,2,4-triazin)-3-yloxy)ethanamine formation by LC-MS/MS(CID) analysis. Format: ADME, Microsome.

Broadly, the Cmax is the maximum level reached in the sampled fluid or tissue. `CCCOc1nncc(-c2cnnc(OCCN(C)C)n2)n1`: the result in the data set with Plasmodium falciparum was Active. This compound also returned a Cmax in data set [1] of 16.8 nM. Also, the Drug metabolism entry in data set [2], in data set [3] and in data set [4] was “Metabolite_Detected” throughout.
